From US20110319384A1, “Pharmaceutical Compositions” (priority 2005, published 2011)

Legend:
[1] = test system: patients with treatment resistant major depression; assay: Example 24: augmentation of antidepressant therapy, quetiapine versus lithium, 56 days
Procedure: The study compared tolerability and efficacy. […] Lithium was initiated at 600 mg/day, and maintained over Week 1 and 2 and subsequently adjusted to attain a level of 0.8-1.2 mmol/L. Lithium levels were taken weekly.
A total of 20 patients were randomized to 1 of the 2 treatment groups. The study population included men and women aged 18-65 years, with a diagnosis of major depression according to DSM-IV, Hamilton Depression Rating Scale (HAM-D)≧20 and a Clinical Global […] (CGI) score ≧4.
Patients were evaluated at baseline and then on days 7, 14, 28, 42, and 56 using the HAM-D, Montgomery-Asberg […] (MADRS), SAS, and Widlocher Psychomotor Retardation Scale.

[2] = test system: patients with treatment resistant or non-remitted GAD
Text: The study population was limited to GAD patients who had not remitted following at least 8 weeks of therapeutic doses of conventional therapy. Conventional therapy includes treatment with one of the following: citalopram, escitalopram, paroxetine, paroxetine CR, venlafaxine XR, sertraline, mirtazapine, fluoxetine, fluvoxamine, or no medication at all. Each patient provided informed consent and was observed on an outpatient basis.
The study population was comprised of patients between the ages of 22 and 61. Forty-eight percent of the study population was male and fifty-two percent was female. […] Patients with other psychiatric disorders, subjective suicidal tendencies, a Montgomery-Asberg Depression Rating Scale (MADRS) score >19, or serious medical conditions were excluded from the study. In addition, pregnant or lactating women and those who took medications prohibited by the study design (e.g., psychoactive substances and oral antipsychotics) within 2 weeks of the original screening were also excluded.
The mean change from baseline to Week 12 in HAM-A total scores was the primary endpoint. […] These additional efficacy assessments were all measured from baseline to Week 12.

[3] = test system: patients with refractory depression (RD); assay: Example 29: Cognitive Behavior Therapy (CBT) plus quetiapine or placebo
[4] = test system: patients with residual anxiety and depression despite SSRI treatment
[5] = test system: elderly patients with MDD and CV damage
[6] = test system: patients with treatment-resistant depression; assay: Example 32: 8-week double-blind randomized placebo-controlled study, quetiapine added to SSRI/SNRI
Text: Pregnant or lactating women, or those who were planning on becoming pregnant were not allowed to participate either. Participation in a clinical research study within 90 days of the start of this study also precluded applicants from participating. […] The primary efficacy endpoint for this study was HAM-D score at Week 8. Secondary endpoints included: (1) response (≧50% reduction in HAM-D score) and remission (HAM-D score <7) rates; (2) final Montgomery-Asberg Rating Scale score (MADRS); (3) CGI-S scores; and (4) CGI-I scores. Efficacy was assessed at baseline, then at Weeks 1, 2, 3, 4, 6, and 8. Adverse events (AEs) were also monitored.

[7] = add-on to antidepressant, mean doses quetiapine 430 mg/day, lithium 825 mg/day
[8] = adjunct to conventional therapy
[9] = adjunct to conventional therapy, mean dose 386 mg/day
[10] = add-on to antidepressants, mean dose 300 mg/day

## OCCOCCN1CCN(C2=Nc3ccccc3Sc3ccccc32)CC1 [quetiapine, 11-[4-[2-(2-hydroxyethoxy)ethyl]-1-piperazinyl]-dibenzo[b,f][1,4]thiazepine]
[1]; add-on to antidepressant
  Widlocher Psychomotor Retardation Scale mean score after treatment: about 7
  mean MADRS score after Day 7 up to Day 56 (end value): about 8
  mean MADRS score, start value 'After Day 7': about 38
[1]; [7]
  mean HAM-D score at Day 56: about 5
  mean HAM-D score, start value of 'From Day 7 to 56': about 26
[1]; after 56 days
  patients in remission (HAM-D): about 80%
  patients who responded (MADRS): Eighty
  patients who responded to treatment (HAM-D): about 80%
[1]; at 56 days
  patients who achieved remission (MADRS): Eighty
[1]; in vivo
  SAS scale scores versus baseline: decreased scores from baseline
[2]; [8]
  Dysfunctional Beliefs and Attitudes about Sleep Scale (DBAS) mean at Week 12: about 73
  Dysfunctional Beliefs and Attitudes about Sleep Scale (DBAS) mean at baseline: about 88
  PSQI (sleep quality) baseline mean: about 17
  PSQI (sleep quality) mean in Week 12: about 7
  Penn State Worry Questionnaire (PSWQ) mean at Week 12: about 44
  Penn State Worry Questionnaire (PSWQ) mean at baseline: about 53
[2]; [9]
  mean HAM-A total score after 12 weeks of treatment: about 9
  mean HAM-A total score at baseline: about 30
[2]; baseline to Week 12
  improvement in mean Sheehan Disability Inventory (SDI) scores (work, family, social interactions): about 2
  mean total weight gain and BMI: slight increases
[2]; in vivo
  patients who entered the study reporting sedation as an adverse event: Forty
  serious adverse events: no serious adverse events were reported
  vital signs or laboratory assessments: no clinically significant changes
[2]; of 50 patients eligible for inclusion
  patients who withdrew due to adverse events: seven
[2]; of the patients withdrawn for adverse events
  patients who withdrew because of sedation: five
[3]; 50% drop-out rate in the CBT+placebo arm
  lack of response drop-outs: no lack of response drop-outs
[3]; CBT 12 weekly sessions, quetiapine up to 200 mg twice a day, no significant reductions with CBT+placebo
  all primary efficacy measures (MADRS, HAM-D): significantly reduced
[3]; in vivo
  most common side effect: Somnolence
  serious adverse events: No serious adverse events were observed
  study survivability (at least 4 or more CBT sessions prior to withdrawal): increased study survivability
  tolerability: generally well-tolerated
[4]; added to stable SSRI
  mean HAM-A score after 9 weeks of treatment: about 6
  mean HAM-A score at baseline: about 25
  mean HAM-D score after 9 weeks of treatment: about 6
  mean HAM-D score at baseline: about 20
  mean State Anxiety Inventory (SAI) score after 9 weeks of treatment: about 30
  mean State Anxiety Inventory (SAI) score at baseline: about 51
[4]; in vivo
  BARS or SAS scores: no clinically relevant changes
  discontinuation as a result of an adverse event: no patient discontinued therapy
  most common side effects: Drowsiness, mild dry mouth, and constipation
  reduction in scores, HAM-A individual subjects analysis: ≥ 50%
  serious adverse events: No serious adverse events occurred
  weight gain: minimal for all patients but one
[5]; add-on to antidepressants
  mean CGI-S score after 6 months: about 5
  mean CGI-S score at baseline: about 6
[5]; [10]
  mean HAM-D score after 6 months: about 15
  mean HAM-D score at baseline: about 27
[5]; in vivo
  discontinuation of the study: No patients discontinued the study
[5]; the only side effects reported
  side effects reported: Sedation and drowsiness
[6]; added to SSRI/SNRI, Week 8, placebo about 15
  mean HAM-D score at study end: about 8
[6]; added to SSRI/SNRI, placebo about 24
  mean MADRS score at study end: about 15
[6]; in vivo
  mean weight gain: about 6 kg
  most common side effects: fatigue, dry mouth, and sedation/somnolence
  patients who withdrew from the study due to serious adverse events: No patients
  tolerability: generally well-tolerated
[6]; placebo 3.5
  final mean CGI-I score: 2.5
[6]; placebo 3.8
  final mean CGI-S score: 2.8
[6]; placebo 15%
  patients who achieved remission (HAM-D score <7): 43%
[6]; placebo 27%
  patients who responded to treatment (≧50% reduction in HAM-D score): 67%
